# Assay results from patent US10195185B2, “3-(1H-imidazo[4,5-C]pyridin-2-yl)-1H-pyrazolo[4,3-B]pyridines and therapeutic uses thereof” (Samumed, LLC, priority 2015, dated 2019).
# Tests used:
# [1] = system: Primary human fibroblasts derived from IPF patients (LL29 cells) treated with TGF-β1; experiment: Inhibition of the fibrotic process: αSMA staining in TGF-β1 treated fibroblasts; format: cell-based; conditions: Fibroblast, 96 h, LL29 fibroblasts treated with TGF-β1, 4 days; for inhibition at 10 µM: read-out: percent inhibition in brackets beside EC50 >10 μM
# Outline: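 EC50 values come from non-linear fits of the αSMA-positive percentage among SYTOX-excluded live cells, normalized to TGF-β1 plus DMSO controls, or appear as % inhibition at 10 μM when above 10 μM. Fibrosis was induced in IPF-derived LL29 fibroblasts by 20 ng/mL TGF-β1 over 4 days, with 1:2 compound dilutions from 10 μM.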
# [2] = system: primary human mesenchymal stem cells (hMSCs); experiment: Induction of chondrogenesis in hMSCs (nodule area, Rhodamine B / Nile Red); format: cell-based; conditions: TGF-β3 as positive control; for Emax: read-out: Max. Activity as % TGF-β3 activity; for EC50: concentration required to induce 50% levels of chondrogenesis, read-out: Conc (nM) of 50% TGF-β3 activity
# Outline: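 Primary hMSCs (passage 3–6) in incomplete chondrogenic induction medium were treated 6 days at 37° C. with 1:3 dilutions (2700–10 nM in 96-well or 5000–2.2 nM in 384-well; 0.03% DMSO). Rhodamine B/Nile Red-stained nodule area was imaged, normalized to DMSO wells, and EC50 was set against TGF-β3 (10 ng/mL).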
SMILES,EC50 [1] [µM],Emax [2] [%],EC50 [2] [nM],inhibition at 10 µM [1] [%]
"Fc1cccc(-c2nccc3[nH]c(-c4n[nH]c5ccc(-c6cncc(OCCN7CCCC7)c6)nc45)nc23)c1 [Compound 514, 3-(4-(3-Fluorophenyl)-1H-imidazo[4,5-c]pyridin-2-yl)-5-(5-(2-(pyrrolidin-1-yl)ethoxy)pyridin-3-yl)-1H-pyrazolo[4,3-b]pyridine]",1.79,–,–,–
"Fc1cccc(-c2nccc3[nH]c(-c4n[nH]c5ccc(C6=CCNCC6)nc45)nc23)c1 [Compound 506, 3-(4-(3-Fluorophenyl)-1H-imidazo[4,5-c]pyridin-2-yl)-5-(1,2,3,6-tetrahydropyridin-4-yl)-1H-pyrazolo[4,3-b]pyridine]",1.17,56,21,–
"O=C(CC1CCNCC1)Nc1cncc(-c2ccc3[nH]nc(-c4nc5c(-c6ccccn6)nccc5[nH]4)c3n2)c1 [Compound 593, 2-(Piperidin-4-yl)-N-(5-(3-(4-(pyri-2-yl)-1H-imidazo[4,5-c]pyridin-2-yl)-1H-pyrazolo[4,3-b]pyridin-5-yl)pyridin-3-yl)acetamide]",1.57,–,–,–
"Cn1cc(-c2ccc3[nH]nc(-c4nc5c(-c6cccc(F)c6)nccc5[nH]4)c3n2)cn1 [Compound 508, 3-(4-(3-Fluorophenyl)-1H-imidazo[4,5-c]pyridin-2-yl)-5-(1-methyl-1H-pyrazol-4-yl)-1H-pyrazolo[4,3-b]pyridine]",0.106,43,–,–
"CN(C)CCNc1cc(F)cc(-c2nccc3[nH]c(-c4n[nH]c5ccc(-c6ccccn6)nc45)nc23)c1 [Compound 476, N^1-(3-Fluoro-5-(2-(5-(pyridin-2-yl)-1H-pyrazolo[4,3-b]pyridin-3-yl)-1H-imidazo[4,5-c]pyridin-4-yl)phenyl)-N^2,N^2-dimethylethane-1,2-diamine]",1.72,–,–,–
"Fc1cccc(-c2nccc3[nH]c(-c4n[nH]c5ccc(-c6ccncc6)nc45)nc23)c1 [Compound 18, 3-(4-(3-Fluorophenyl)-1H-imidazo[4,5-c]pyridin-2-yl)-5-(pyridin-4-yl)-1H-pyrazolo[4,3-b]pyridine]",4.21,53,2,–
"Cc1ccc(-c2nccc3[nH]c(-c4n[nH]c5ccc(-c6cncc(N)c6)nc45)nc23)s1 [Compound 395, 5-(3-(4-(5-Methylthiophen-2-yl)-1H-imidazo[4,5-c]pyridin-2-yl)-1H-pyrazolo[4,3-b]pyridin-5-yl)pyridin-3-amine]",5.07,73,10,–
"CN(C)c1cncc(-c2ccc3[nH]nc(-c4nc5c(-c6cccs6)nccc5[nH]4)c3n2)c1 [Compound 343, N,N-Dimethyl-5-(3-(4-(thiophen-2-yl)-1H-imidazo[4,5-c]pyridin-2-yl)-1H-pyrazolo[4,3-b]pyridin-5-yl)pyridin-3-amine]",0.477,85,100,–
"CN(C)Cc1cncc(-c2ccc3[nH]nc(-c4nc5c(-c6cccs6)nccc5[nH]4)c3n2)c1 [Compound 349, N,N-dimethyl-1-(5-(3-(4-(thiophen-2-yl)-1H-imidazo[4,5-c]pyridin-2-yl)-1H-pyrazolo[4,3-b]pyridin-5-yl)pyridin-3-yl)methanamine]",2.63,75,10,–
"c1cc(-c2nccc3[nH]c(-c4n[nH]c5ccc(-c6cncc(OC7CCNCC7)c6)nc45)nc23)ccn1 [Compound 576, 5-(5-(Piperidin-4-yloxy)pyridin-3-yl)-3-(4-(pyridin-4-yl)-1H-imidazo[4,5-c]pyridin-2-yl)-1H-pyrazolo[4,3-b]pyridine]",2.39,–,–,–
"NC1CN(c2cncc(-c3ccc4[nH]nc(-c5nc6c(-c7cccc(F)c7)nccc6[nH]5)c4n3)n2)C1 [Compound 510, 1-(6-(3-(4-(3-Fluorophenyl)-1H-imidazo[4,5-c]pyridin-2-yl)-1H-pyrazolo [4,3-b]pyridin-5-yl)pyrazin-2-yl)azetidin-3-amine]",> 10,36,–,10.3
"Cc1ccc(-c2nccc3[nH]c(-c4n[nH]c5ccc(-c6cncc(NC(=O)C7CCCC7)c6)nc45)nc23)s1 [Compound 414, N-(5-(3-(4-(5-Methylthiophen-2-yl)-1H-imidazo[4,5-c]pyridin-2-yl)-1H-pyrazolo[4,3-b]pyridin-5-yl)pyridin-3-yl)cyclopentanecarboxamide]",> 10,–,–,46.2
"Fc1cccc(-c2nccc3[nH]c(-c4n[nH]c5ccc(-c6cn[nH]c6)nc45)nc23)c1 [Compound 507, 3-(4-(3-Fluorophenyl)-1H-imidazo[4,5-c]pyridin-2-yl)-5-(1H-pyrazol-4-yl)-1H-pyrazolo[4,3-b]pyridine]",> 10,70,7,9.9
"CC(C)CC(=O)Nc1cncc(-c2ccc3[nH]nc(-c4nc5c(-c6cccc(F)c6)nccc5[nH]4)c3n2)c1 [Compound 2, N-(5-(3-(4-(3-Fluorophenyl)-1H-imidazo[4,5-c]pyridin-2-yl)-1H-pyrazolo [4,3-b]pyridin-5-yl)pyridin-3-yl)-3-methylbutanamide]",> 10,58,21,25.1
"Cc1ccncc1-c1ccc2[nH]nc(-c3nc4c(-c5cc(F)cc(CNS(C)(=O)=O)c5)nccc4[nH]3)c2n1 [Compound 481, N-(3-Fluoro-5-(2-(5-(4-methylpyridin-3-yl)-1H-pyrazolo[4,3-b]pyridin-3-yl)-1H-imidazo[4,5-c]pyridin-4-yl)benzyl)methanesulfonamide]",5,30,–,–
"Cc1ccc(-c2nccc3[nH]c(-c4n[nH]c5ccc(-c6cncc(NC(=O)C(C)C)c6)nc45)nc23)s1 [Compound 401, N-(5-(3-(4-(5-Methylthiophen-2-yl)-1H-imidazo[4,5-c]pyridin-2-yl)-1H-pyrazolo [4,3-b]pyridin-5-yl)pyridin-3-yl)isobutyramide]",2.52,56,1670,–
"c1ccc(COc2cncc(-c3ccc4[nH]nc(-c5nc6c(-c7ccncc7)nccc6[nH]5)c4n3)c2)cc1 [Compound 582, 5-(5-(Benzyloxy)pyridin-3-yl)-3-(4-(pyridin-4-yl)-1H-imidazo[4,5-c]pyridin-2-yl)-1H-pyrazolo[4,3-b]pyridine]",> 10,–,–,0
"O=C(Nc1cncc(-c2ccc3[nH]nc(-c4nc5c(-c6cccc(F)c6)nccc5[nH]4)c3n2)c1)C1CC1 [Compound 20, N-(5-(3-(4-(3-Fluorophenyl)-1H-imidazo[4,5-c]pyridin-2-yl)-1H-pyrazolo [4,3-b]pyridin-5-yl)pyridin-3-yl)cyclopropanecarboxamide]",> 10,–,–,14.1
"c1cc2[nH]c(-c3n[nH]c4ccc(-c5cncc(OCCN6CCCC6)c5)nc34)nc2c(N2CCCCC2)n1 [Compound 610, 3-(4-(Piperidin-1-yl)-1H-imidazo[4,5-c]pyridin-2-yl)-5-(5-(2-(pyrrolidin-1-yl)ethoxy)pyridin-3-yl)-1H-pyrazolo[4,3-b]pyridine]",> 10,–,–,0
"O=C(Nc1cncc(-c2ccc3[nH]nc(-c4nc5c(-c6cccs6)nccc5[nH]4)c3n2)c1)C1CC1 [Compound 356, N-(5-(3-(4-(Thiophen-2-yl)-1H-imidazo[4,5-c]pyridin-2-yl)-1H-pyrazolo [4,3-b]pyridin-5-yl)pyridin-3-yl)cyclopropanecarboxamide]",5.59,–,–,–
"c1cc(-c2nccc3[nH]c(-c4n[nH]c5ccc(-c6cnccn6)nc45)nc23)ccn1 [Compound 584, 5-(Pyrazin-2-yl)-3-(4-(pyridin-4-yl)-1H-imidazo[4,5-c]pyridin-2-yl)-1H-pyrazolo[4,3-b]pyridine]",> 10,–,–,0
"CS(=O)(=O)NCc1cc(F)cc(-c2nccc3[nH]c(-c4n[nH]c5ccc(-c6cncnc6)nc45)nc23)c1 [Compound 503, N-(3-Fluoro-5-(2-(5-(pyrimidin-5-yl)-1H-pyrazolo[4,3-b]pyridin-3-yl)-1H-imidazo[4,5-c]pyridin-4-yl)benzyl)methanesulfonamide]",> 10,–,–,0
"Cc1cn(-c2nccc3[nH]c(-c4n[nH]c5ccc(-c6cncc(OCCN(C)C)c6)nc45)nc23)cn1 [Compound 627, N,N-Dimethyl-2-((5-(3-(4-(4-methyl-1H-imidazol-1-yl)-1H-imidazo[4,5-c]pyridin-2-yl)-1H-pyrazolo[4,3-b]pyridin-5-yl)pyridin-3-yl)oxy)ethan-1-amine]",4.37,–,–,–
"Oc1cncc(-c2ccc3[nH]nc(-c4nc5c(-c6cccnc6)nccc5[nH]4)c3n2)c1 [Compound 565, 5-(3-(4-(Pyridin-3-yl)-1H-imidazo[4,5-c]pyridin-2-yl)-1H-pyrazolo[4,3-b]pyridin-5-yl)pyridin-3-ol]",0.797,–,–,–
"CS(=O)(=O)NCc1cc(F)cc(-c2nccc3[nH]c(-c4n[nH]c5ccc(-c6cncc(NC(=O)c7ccccc7)c6)nc45)nc23)c1 [Compound 487, N-(5-(3-(4-(3-Fluoro-5-(methylsulfonamidomethyl)phenyl)-1H-imidazo[4,5-c]pyridin-2-yl)-1H-pyrazolo[4,3-b]pyridin-5-yl)pyridin-3-yl)benzamide]",> 10,–,–,0
"c1cncc(-c2nccc3[nH]c(-c4n[nH]c5ccc(-c6cncc(OC7CCCCC7)c6)nc45)nc23)c1 [Compound 559, 5-(5-(Cyclohexyloxy)pyridin-3-yl)-3-(4-(pyridin-3-yl)-1H-imidazo[4,5-c]pyridin-2-yl)-1H-pyrazolo[4,3-b]pyridine]",2.73,–,–,–
